According to ChEMBL document CHEMBL1909294, “Translating clinical findings into knowledge in drug safety evaluation--drug induced liver injury prediction system (DILIps)” (PLoS Comput Biol, 2011):

Key:
Hepatotoxicity [1] = tested on: Hepatotoxicity;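 for HepSE cholecystitis: Cholecystitis-related hepatic side effect score drawn from the DILIps (drug-induced liver injury prediction) training data set; call rule not given here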;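 for HepSE cholelithiasis: hepatic side effect score for cholelithiasis, drawn from the DILIps training data for predicting drug-induced liver injury; call rule not given here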;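 for HepSE cirrhosis: cirrhosis hepatic side effect score taken from the DILIps (drug-induced liver injury prediction) training set; call rule not given here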;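 for HepSE elevated liver function tests: hepatic side effect score for raised liver function tests, as recorded in the DILIps training set used for predicting drug-induced liver injury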;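 for HepSE hepatitis: Hepatitis-related hepatic side effect score taken from the training data of DILIps, a prediction system for drug-induced liver injury; call rule not given here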; for HepSE liver disease: call rule not given here;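 for HepSE liver function tests abnormal: hepatic side effect score taken from the DILIps (drug-induced liver injury prediction system) training data, here covering abnormal liver function test findings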
Hepatotoxicity [2] = tested on: Hepatotoxicity; remark: listed apart in the source;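 for HepSE cholecystitis: Cholecystitis-related hepatic side effect score drawn from the DILIps (drug-induced liver injury prediction) training data set; call rule not given here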;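 for HepSE cholelithiasis: hepatic side effect score for cholelithiasis, drawn from the DILIps training data for predicting drug-induced liver injury; call rule not given here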;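 for HepSE cirrhosis: cirrhosis hepatic side effect score taken from the DILIps (drug-induced liver injury prediction) training set; call rule not given here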;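 for HepSE hepatitis: Hepatitis-related hepatic side effect score taken from the training data of DILIps, a prediction system for drug-induced liver injury; call rule not given here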; for HepSE liver disease: call rule not given here;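 for HepSE liver function tests abnormal: hepatic side effect score taken from the DILIps (drug-induced liver injury prediction system) training data, here covering abnormal liver function test findings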
Hepatotoxicity [3] = tested on: Hepatotoxicity; remark: listed apart in the source;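 for HepSE cholecystitis: Cholecystitis-related hepatic side effect score drawn from the DILIps (drug-induced liver injury prediction) training data set; call rule not given here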;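 for HepSE cholelithiasis: hepatic side effect score for cholelithiasis, drawn from the DILIps training data for predicting drug-induced liver injury; call rule not given here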;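 for HepSE cirrhosis: cirrhosis hepatic side effect score taken from the DILIps (drug-induced liver injury prediction) training set; call rule not given here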;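 for HepSE hepatitis: Hepatitis-related hepatic side effect score taken from the training data of DILIps, a prediction system for drug-induced liver injury; call rule not given here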; for HepSE liver disease: call rule not given here;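 for HepSE liver function tests abnormal: hepatic side effect score taken from the DILIps (drug-induced liver injury prediction system) training data, here covering abnormal liver function test findings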
Hepatotoxicity [4] = tested on: Hepatotoxicity; remark: listed apart in the source;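 for HepSE cholecystitis: Cholecystitis-related hepatic side effect score drawn from the DILIps (drug-induced liver injury prediction) training data set; call rule not given here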;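 for HepSE cholelithiasis: hepatic side effect score for cholelithiasis, drawn from the DILIps training data for predicting drug-induced liver injury; call rule not given here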;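 for HepSE cirrhosis: cirrhosis hepatic side effect score taken from the DILIps (drug-induced liver injury prediction) training set; call rule not given here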;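 for HepSE hepatitis: Hepatitis-related hepatic side effect score taken from the training data of DILIps, a prediction system for drug-induced liver injury; call rule not given here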; for HepSE liver disease: call rule not given here;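 for HepSE liver function tests abnormal: hepatic side effect score taken from the DILIps (drug-induced liver injury prediction system) training data, here covering abnormal liver function test findings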
Hepatotoxicity [5] = tested on: Hepatotoxicity; remark: listed apart in the source; for HepSE liver disease: call rule not given here
Hepatotoxicity [6] = tested on: Hepatotoxicity; remark: listed apart in the source; for HepSE liver disease: call rule not given here
Hepatotoxicity [7] = tested on: Hepatotoxicity; remark: listed apart in the source
Hepatotoxicity [8] = tested on: Hepatotoxicity; remark: listed apart in the source
Hepatotoxicity [9] = tested on: Hepatotoxicity; remark: listed apart in the source
Hepatotoxicity [10] = tested on: Hepatotoxicity; remark: listed apart in the source
Hepatotoxicity [11] = tested on: Hepatotoxicity; remark: listed apart in the source
Hepatotoxicity [12] = tested on: Hepatotoxicity; remark: listed apart in the source
Hepatotoxicity [13] = tested on: Hepatotoxicity; remark: listed apart in the source
Hepatotoxicity [14] = tested on: Hepatotoxicity; remark: listed apart in the source
Hepatotoxicity [15] = tested on: Hepatotoxicity; remark: listed apart in the source
Hepatotoxicity [16] = tested on: Hepatotoxicity; remark: listed apart in the source

Molecule: CONC(=N)c1ccc(-c2ccc(-c3ccc(C(=N)NOC)cc3)o2)cc1 [PAFURAMIDINE]
- DILI positive/negative (Hepatotoxicity [1]): 1

Molecule: CC(N)C(=O)OC(C)(C)Cc1ccc(Cl)cc1 (centres undefined) [ALAPROCLATE]
- DILI positive/negative (Hepatotoxicity [1]): 1

Molecule: CCC1(c2ccccc2)C(=O)NC(=O)NC1=O.CCCCCOC(CN1C(=O)N(CC(COCCCC)OC(N)=O)C(=O)C(CC)(c2ccccc2)C1=O)OC(N)=O.CCCCOCC(CN1C(=O)NC(=O)C(CC)(c2ccccc2)C1=O)OC(N)=O (centres undefined) [TETRABAMATE]
- DILI positive/negative (Hepatotoxicity [1]): 1

Molecule: CCOC(Nc1ccc(C(=O)O)cc1)C(=O)c1ccc(-c2ccccc2)cc1 (centres undefined) [XENAZOIC ACID]
- DILI positive/negative (Hepatotoxicity [1]): 1

Molecule: NC(=O)NS(=O)(=O)c1ccc(N)cc1 [SULFACARBAMIDE]
- DILI positive/negative (Hepatotoxicity [1]): 1

Molecule: CN(C)CCCC1c2ccccc2Nc2ccc(Cl)cc21 (centres undefined) [CLOMACRAN]
- DILI positive/negative (Hepatotoxicity [1]): 1

Molecule: O=C1Nc2ccccc2C1(c1ccc(O)cc1)c1ccc(O)cc1 [OXYPHENISATINE]
- DILI positive/negative (Hepatotoxicity [1]): 1

Molecule: CC[N+](C)(C)c1cccc(O)c1.[Br-] [EDROPHONIUM BROMIDE]
- DILI positive/negative (Hepatotoxicity [1]): 0

Molecule: NC(N)=Nc1nc(CSCCN/C=N/S(=O)(=O)c2ccc(Br)cc2)cs1 [EBROTIDINE]
- DILI positive/negative (Hepatotoxicity [1]): 1

Molecule: CCCCCCCCNC(C)C(O)c1ccc(SC(C)C)cc1 (centres undefined) [SULOCTIDIL]
- DILI positive/negative (Hepatotoxicity [1]): 1

Molecule: CS(=O)(=O)CCNCc1ccc(-c2ccc3ncnc(Nc4ccc(OCc5cccc(F)c5)c(Cl)c4)c3c2)o1 [LAPATINIB]
- DILI positive/negative (Hepatotoxicity [1]): 1

Molecule: CN1C(=O)CCS(=O)(=O)C1c1ccc(Cl)cc1 (centres undefined) [CHLORMEZANONE]
- DILI positive/negative (Hepatotoxicity [1]): 1

Molecule: CN1CCCC(CN2c3ccccc3Sc3ccccc32)C1 (centres undefined) [MEPAZINE]
- DILI positive/negative (Hepatotoxicity [1]): 1

Molecule: CC(=O)Oc1ccc(C2(c3ccc(OC(C)=O)cc3)C(=O)N(C(C)=O)c3ccccc32)cc1 [TRIACETYLDIPHENOLISATIN]
- DILI positive/negative (Hepatotoxicity [1]): 1

Molecule: COLISTIMETHATE
- DILI positive/negative (Hepatotoxicity [1]): 0

Molecule: CN1CCC(Nc2ncc3ncnc(Nc4ccc(F)c(Cl)c4)c3n2)CC1 [FALNIDAMOL]
- DILI positive/negative (Hepatotoxicity [1]; Liver): 1

Molecule: O=C(O)CCCCCCNC1c2ccccc2CCc2ccccc21 [AMINEPTINE]
- DILI positive/negative (Hepatotoxicity [1]): 1

Molecule: C[C@@H](Cc1ccccc1)N(C)Cc1ccccc1 [BENZPHETAMINE]
- DILI positive/negative (Hepatotoxicity [1]): 0

Molecule: Cc1ccc(Nc2c(F)cccc2Cl)c(CC(=O)O)c1 [LUMIRACOXIB]
- DILI positive/negative (Hepatotoxicity [1]): 1

Molecule: CCN(CC)CCOc1ccc(C(=C(Cl)c2ccccc2)c2ccccc2)cc1 [CLOMIPHENE]
- HepSE_liver disease (Hepatotoxicity [2]): 0
- HepSE_hepatitis (Hepatotoxicity [3]): 1
- HepSE_cirrhosis (Hepatotoxicity [4]): 0
- HepSE_liver function tests abnormal (Hepatotoxicity [5]): 0
- HepSE_cholelithiasis (Hepatotoxicity [6]): 0
- HepSE_hepatic necrosis (Hepatotoxicity [7]): 0
- HepSE_liver fatty (Hepatotoxicity [8]): 0
- HepSE_cholecystitis (Hepatotoxicity [9]): 0
- HepSE_bilirubinemia (Hepatotoxicity [10]): 0
- HepSE_elevated liver function tests (Hepatotoxicity [11]): 0
- DILI positive/negative (Hepatotoxicity [12]): 1
- HepSE_Combined Scores (Hepatotoxicity [13]): 1
- HepSE_hepatic failure (Hepatotoxicity [14]): 0
- HepSE_hepatomegaly (Hepatotoxicity [15]): 0
- HepSE_jaundice (Hepatotoxicity [16]): 0

Molecule: Nc1nc(Cl)nc2c1ncn2[C@H]1C[C@H](O)[C@@H](CO)O1 [CLADRIBINE]
- HepSE_liver disease (Hepatotoxicity [2]): 0
- HepSE_hepatitis (Hepatotoxicity [3]): 0
- HepSE_cirrhosis (Hepatotoxicity [4]): 0
- HepSE_liver function tests abnormal (Hepatotoxicity [5]): 0
- HepSE_cholelithiasis (Hepatotoxicity [6]): 0
- HepSE_hepatic necrosis (Hepatotoxicity [7]): 0
- HepSE_liver fatty (Hepatotoxicity [8]): 0
- HepSE_cholecystitis (Hepatotoxicity [9]): 0
- HepSE_bilirubinemia (Hepatotoxicity [10]): 0
- HepSE_elevated liver function tests (Hepatotoxicity [11]): 0
- DILI positive/negative (Hepatotoxicity [12]): 0
- HepSE_Combined Scores (Hepatotoxicity [13]): 0
- HepSE_hepatic failure (Hepatotoxicity [14]): 0
- HepSE_hepatomegaly (Hepatotoxicity [15]): 0
- HepSE_jaundice (Hepatotoxicity [16]): 0

Molecule: CO[C@H]1C[C@H](O[C@H]2[C@H](C)[C@@H](O[C@@H]3O[C@H](C)C[C@H](N(C)C)[C@H]3OC(C)=O)[C@@H](C)C[C@@]3(CO3)C(=O)[C@H](C)[C@@H](OC(C)=O)[C@@H](C)[C@@H](C)OC(=O)[C@@H]2C)O[C@@H](C)[C@@H]1OC(C)=O [TROLEANDOMYCIN]
- DILI positive/negative (Hepatotoxicity [12]): 1

Molecule: COc1cc2c(c3oc(=O)c4c(c13)CCC4=O)[C@@H]1C=CO[C@@H]1O2 [AFLATOXIN]
- DILI positive/negative (Hepatotoxicity [12]): 1

Molecule: CCOC(=O)C1(c2ccccc2)CCN(CCC(C#N)(c2ccccc2)c2ccccc2)CC1.Cl [DIPHENOXYLATE HYDROCHLORIDE]
- DILI positive/negative (Hepatotoxicity [12]): 0

Molecule: COCC(=O)O[C@]1(CCN(C)CCCc2nc3ccccc3[nH]2)CCc2cc(F)ccc2[C@@H]1C(C)C [MIBEFRADIL]
- DILI positive/negative (Hepatotoxicity [12]): 0

Molecule: C#CC1(O)CC[C@H]2[C@@H]3CCC4=CC(=O)CC[C@@H]4[C@H]3CC[C@@]21CC (some centres undefined) [NORGESTREL]
- DILI positive/negative (Hepatotoxicity [12]; Liver): 1

Molecule: Cc1cc(CC(=O)O)n(C)c1C(=O)c1ccc(Cl)cc1 [ZOMEPIRAC]
- DILI positive/negative (Hepatotoxicity [12]): 0

Molecule: Cc1onc(-c2ccccc2Cl)c1C(=O)N[C@@H]1C(=O)N2[C@@H]1SC(C)(C)[C@@H]2C(=O)[O-].O.[Na+] [CLOXACILLIN SODIUM]
- DILI positive/negative (Hepatotoxicity [12]): 1

Molecule: CCC1(c2ccccc2)C(=O)NC(=O)N(C)C1=O (centres undefined) [MEPHOBARBITAL]
- DILI positive/negative (Hepatotoxicity [12]): 1

Molecule: CCSCC[C@H](N)C(=O)O [ETHIONINE]
- DILI positive/negative (Hepatotoxicity [12]): 1

Molecule: CC1(c2ccccc2)Cc2cc(OCC(=O)O)c(Cl)c(Cl)c2C1=O (centres undefined) [INDACRINONE]
- DILI positive/negative (Hepatotoxicity [12]): 1
